Source: patent US7632783B2 (priority 2004, dated 2009)

Columns and labels:
[1] = tested on: rice blast (Pyricularia oryzae); format: in vivo; conditions: potted rice (variety Karakaze), spraying liquid 300 ppm after spore inoculation, observed 7 days after inoculation, levels 0 to 3
[2] = tested on: gray mold (Botrytis cinerea); experiment: Tomato gray mold control test (preventive effects); format: in vivo; conditions: potted tomato (giant Fukuju variety), spraying liquid 300 ppm before spore inoculation, investigated 2 days after inoculation, levels 0 to 3
Method: Bulk drug was dissolved in a mixed solution of dimethylsulfoxide and methanol (volume ratio: 7/3), and spraying liquids containing 300 ppm of compounds of the present invention were uniformly sprayed onto potted test plants (tomato: giant Fukuju variety) in the second to third leaf stage. […], a suspension of pathogen spores were inoculated by spraying onto the pots in an inoculation room at a room temperature of 20 to 23° C. to promote the onset of disease. The degree of disease onset was investigated 2 days after inoculation. The test was carried out in duplicate.
Furthermore, the degree of disease onset was evaluated to one of four levels from 0 to 3 according to the criteria below by macroscopically observing the degree of disease onset of the test plants.
1: Degree of disease onset less than 40% of the untreated area
2: Degree of disease onset 40% to less than 80% of the untreated area
3: Degree of disease onset 80% or more

Compound	degree of disease onset [1]	degree of disease onset [2]
5-fluoro-3,3,4,4-tetramethyl-8b-(1-oxidequinoline-3-yl)-4,8b-dihydro-3H-oxazileno[3,2-a]isoquinoline [Example 198]	0	–
CC1(C)Cc2ccccc2C(c2cnc3ccccc3c2)=N1 [Example 6, 3-(3,3-dimethyl-3,4-dihydroisoquinolin-1-yl)quinoline]	0	–
CC1(C)Cc2ccccc2C(c2cnc3c(F)cccc3c2)=N1 [Example 7, 3-(3,3-dimethyl-3,4-dihydroisoquinolin-1-yl)-8-fluoroquinoline]	0	–
Cc1cccc2cc(C3=NC(C)(C)Cc4ccccc43)cnc12 [Example 9, 3-(3,3-dimethyl-3,4-dihydroisoquinolin-1-yl)-8-methylquinoline]	0	–
CC1(C)Cc2cc(F)ccc2C(c2cnc3ccccc3c2)=N1 [Example 16, 3-(6-fluoro-3,3-dimethyl-3,4-dihydroisoquinolin-1-yl)quinoline]	0	–
CC1(C)Cc2cc(Cl)ccc2C(c2cnc3ccccc3c2)=N1 [Example 20, 3-(6-chloro-3,3-dimethyl-3,4-dihydroisoquinolin-1-yl)quinoline]	–	0
CC1(C)Cc2cc(Br)ccc2C(c2cnc3ccccc3c2)=N1 [Example 23, 3-(6-bromo-3,3-dimethyl-3,4-dihydroisoquinolin-1-yl)quinoline]	–	0
Cc1cccc2c1CC(C)(C)N=C2c1cnc2ccccc2c1 [Example 26, 3-(3,3,5-trimethyl-3,4-dihydroisoquinolin-1-yl)quinoline]	0	–
CC1(C)Cc2c(cccc2-c2cccs2)C(c2cnc3ccccc3c2)=N1 [Example 32, 3-[5-(2-thienyl)-3,3-dimethyl-3,4-dihydroisoquinolin-1-yl]quinoline]	0	–
CC1(C)Cc2c(cccc2-c2ccsc2)C(c2cnc3ccccc3c2)=N1 [Example 33, 3-[5-(3-thienyl)-3,3-dimethyl-3,4-dihydroisoquinolin-1-yl]quinoline]	0	–
CON=C(C)c1cccc2c1CC(C)(C)N=C2c1cnc2ccccc2c1 [Example 36, 1-(3,3-dimethyl-1-quinolin-3-yl-3,4-dihydroisoquinolin-5-yl)ethanone=O-methyloxime]	0	–
CCON=C(C)c1cccc2c1CC(C)(C)N=C2c1cnc2ccccc2c1 [Example 38, 1-(3,3-dimethyl-1-quinolin-3-yl-3,4-dihydroisoquinolin-5-yl)ethanone=O-ethyloxime]	0	–
CC(=NOc1ccccc1)c1cccc2c1CC(C)(C)N=C2c1cnc2ccccc2c1 [Example 44, 1-(3,3-dimethyl-1-quinolin-3-yl-3,4-dihydroisoquinolin-5-yl)ethanone=O-phenyloxime]	–	0
CC1(C)Cc2c(ccc(Cl)c2Cl)C(c2cnc3ccccc3c2)=N1 [Example 53, 3-(5,6-dichloro-3,3-dimethyl-3,4-dihydroisoquinolin-1-yl)quinoline]	–	0
CCC1(C)Cc2ccccc2C(c2cnc3ccccc3c2)=N1 (centres unmarked) [Example 55, 3-(3-ethyl-3-methyl-3,4-dihydroisoquinolin-1-yl)quinoline]	0	–
CCCC1(C)Cc2ccccc2C(c2cnc3ccccc3c2)=N1 (centres unmarked) [Example 57, 3-(3-methyl-3-propyl-3,4-dihydroisoquinolin-1-yl)quinoline]	0	–
CC(C)C1(C)Cc2ccccc2C(c2cnc3ccccc3c2)=N1 (centres unmarked) [Example 59, 3-(3-isopropyl-3-methyl-3,4-dihydroisoquinolin-1-yl)quinoline]	0	–
CC(C)CC1(C)Cc2ccccc2C(c2cnc3ccccc3c2)=N1 (centres unmarked) [Example 60, 3-(3-isobutyl-3-methyl-3,4-dihydroisoquinolin-1-yl)quinoline]	0	–
CC(C)CCC1(C)Cc2ccccc2C(c2cnc3ccccc3c2)=N1 (centres unmarked) [Example 62, 3-(3-isopentyl-3-methyl-3,4-dihydroisoquinolin-1-yl)quinoline]	0	–
CCC1(CC)Cc2ccccc2C(c2cnc3ccccc3c2)=N1 [Example 63, 3-(3,3-diethyl-3,4-dihydroisoquinolin-1-yl)quinoline]	0	–
FC(F)(F)C1(c2ccccc2)Cc2ccccc2C(c2cnc3ccccc3c2)=N1 (centres unmarked) [Example 74, 3-(3-trifluoromethyl-3-phenyl-3,4-dihydroisoquinolin-1-yl)quinoline]	0	–

Compound	degree of disease onset [1]	degree of disease onset [2]
c1ccc2c(c1)CC1(CCCC1)N=C2c1cnc2ccccc2c1 [Example 80, 1′-quinolin-3-yl-4′H-spiro[cyclopentane-1,3′-isoquinoline]]	0	–
Fc1cccc2c1CC1(CCCC1)N=C2c1cnc2ccccc2c1 [Example 81, 5′-fluoro-1′-quinolin-3-yl-4′H-spiro[cyclopentane-1,3′-isoquinoline]]	0	–
Fc1ccc2c(c1)CC1(CCCC1)N=C2c1cnc2ccccc2c1 [Example 82, 6′-fluoro-1′-quinolin-3-yl-4′H-spiro[cyclopentane-1,3′-isoquinoline]]	0	–
Clc1ccc2c(c1)CC1(CCCCC1)N=C2c1cnc2ccccc2c1 [Example 92, 6′-chloro-1′-quinolin-3-yl-4′H-spiro[cyclohexane-1,3′-isoquinoline]]	–	0
CC1CCC2(Cc3ccccc3C(c3cnc4ccccc4c3)=N2)C1 (centres unmarked) [Example 101, 1′-quinolin-3-yl-4′H-spiro[(3-methylcyclopentane)-1,3′-isoquinoline]]	0	–
CC1(C)Cc2c(F)cccc2C(c2cnc3ccccc3c2)=N1.O=S(=O)(O)O [Example 104, 3-(5-fluoro-3,3-dimethyl-3,4-dihydroisoquinolin-1-yl)quinoline sulfate]	0	–
CC1(C)Cc2c(F)cccc2C(c2cnc3ccccc3c2)=N1.O=[N+]([O-])O [Example 105, 3-(5-fluoro-3,3-dimethyl-3,4-dihydroisoquinolin-1-yl)quinoline nitrate]	0	–
CC1(C)Cc2c(F)cccc2C(c2cnc3ccccc3c2)=N1.O=C(O)C(=O)O [Example 106, 3-(5-fluoro-3,3-dimethyl-3,4-dihydroisoquinolin-1-yl)quinoline oxalate]	0	–
CON=Cc1cccc2c1CC(C)(C)N=C2c1cnc2ccccc2c1 [Example 117, 1-(3,3-dimethyl-1-quinolin-3-yl-3,4-dihydroisoquinolin-5-yl)methanone=O-methyloxime]	0	–
CC1c2ccccc2C(c2cnc3ccccc3c2)=NC1(C)C (centres unmarked) [Example 119, 3-(3,3,4-trimethyl-3,4-dihydroisoquinolin-1-yl)quinoline]	0	–
CC1c2c(F)cccc2C(c2cnc3ccccc3c2)=NC1(C)C (centres unmarked) [Example 120, 3-(5-fluoro-3,3,4-trimethyl-3,4-dihydroisoquinolin-1-yl)quinoline]	–	0
CC1(C)Cc2c(cccc2C(F)F)C(c2cnc3ccccc3c2)=N1 [Example 132, 3-(5-difluoromethyl-3,3-dimethyl-3,4-dihydroisoquinolin-1-yl)quinoline]	0	–
CC1(C)N=C(c2cnc3ccccc3c2)c2ccc(F)cc2C1(C)C [Example 150, 3-(6-fluoro-3,3,4,4-tetramethyl-3,4-dihydroisoquinolin-1-yl)quinoline]	0	–
Cc1cccc2c1C(C)(C)C(C)(C)N=C2c1cnc2ccccc2c1 [Example 160, 3-(3,3,4,4,5-pentamethyl-3,4-dihydroisoquinolin-1-yl)quinoline]	0	–
c1ccc2c(c1)C(c1cnc3ccccc3c1)=NCC21CCC1 [Example 171, 1′-quinolin-3-yl-4′H-spiro[cyclobutane-1,4′-isoquinoline]]	0	–
CC1(C)N=C(c2cnc3ccccc3c2)c2cccc(F)c2C1(C)O (centres unmarked) [Example 181, 3-(5-fluoro-4-hydroxy-3,3,4-trimethyl-3,4-dihydroisoquinolin-1-yl)quinoline]	0	–
COC1(C)c2c(F)cccc2C(c2cnc3ccccc3c2)=NC1(C)C (centres unmarked) [Example 183, 3-(5-fluoro-4-methoxy-3,3,4-trimethyl-3,4-dihydroisoquinolin-1-yl)quinoline]	0	–
CC1c2ccccc2C(c2cnc3ccccc3c2)=[N+]([O-])C1(C)C (centres unmarked) [Example 206, 3-(3,3,4-trimethyl-2-oxide-3,4-dihydroisoquinolin-1-yl)quinoline]	0	–
CC1(C)Cc2c(F)cccc2C(c2cnc3ccccc3c2)=[N+]1[O-] [Example 208, 3-(5-fluoro-3,3-dimethyl-2-oxide-3,4-dihydroisoquinolin-1-yl)quinoline]	0	–
CC1(C)c2ccc(F)cc2C(c2cnc3ccccc3c2)=[N+]([O-])C1(C)C [Example 210, 3-(7-fluoro-3,3,4,4-tetramethyl-2-oxide-3,4-dihydroisoquinolin-1-yl)quinoline]	0	–
